Results taken from patent US20240374624A1, “NOVEL USE OF AT LEAST A HUMAN MILK OLIGOSACCHARIDE” (DSM IP ASSETS B.V., priority 2021, published 2024).

Test system: C. acnes (ATCC reference 11827)
Assay: Cutibacterium acnes Time-Kill Assay
Type: cell-based
Conditions: for Log-step reduction (16 h) / Log-step reduction (24 h): reduction compared to initial log cfu/ml of 5.38, n=3; for effect on C. acnes (reduction or growth promotion, in words): summary of the time-kill study
Description: Cutibacterium acnes Time-Kill Assay:
Seven different HMOs were screened for their potential anti-microbial activities against C. acnes (ATCC reference 11827). The action of ingredients and combinations thereof is assessed through a miniaturized method performed in liquid media in 96 deepwell plates format. The inhibition of the growth of C. acnes is compared to the same strain growth in corresponding optimal media.
The different ingredients are mixed at two different concentrations in growth medium (final volume 2 mL) in deepwell plates (n=3 for each concentration).
Analysis controls are prepared and used identically to samples: • A growth control of C. acnes in the corresponding culture medium; • A […] consisting of Phenoxyethanol prepared at 0.5% (v/v) directly in the culture medium.
Then, samples are contaminated with C. acnes, inoculum at final concentration of 3.7×10^5 CFU/mL, and incubated at 37° C.±2.5° C. during 24 h. At each defined timepoint (i.e. 30 min, 2 h, 4 h, 16 h and 24 h), a pick-up of the contaminated samples is performed (20 L) after gentle agitation.
To perform the counting, aliquots of the contaminated samples are serially diluted (decimal dilutions) in culture medium in 96-well plates with triphenyltetrazolium and incubated at 37° C.±2.5° C. during 48 h. After 48 h at the optimal growing conditions, the last dilution showing a pink color (triphenyltetrazolium) or turbidity indicates the contamination rate and allow the determination of the corresponding microbial population.
The results of the Time-Kill study are presented in the table below data are shown as log-step reduction compared to initial log cfu/ml of 5.38.

[1] = 0.10 wt.-% ingredient in growth medium
[2] = 0.5 wt.-% ingredient in growth medium

| Compound | Log-step reduction (16 h) [1] [log-step] | Log-step reduction (24 h) [1] [log-step] | Log-step reduction (16 h) [2] [log-step] | Log-step reduction (24 h) [2] [log-step] | effect on C. acnes (reduction or growth promotion, in words) |
| --- | --- | --- | --- | --- | --- |
| CC(=O)N[C@H]1[C@H](O[C@H]2[C@@H](O)[C@@H](CO)O[C@@H](O[C@H]3[C@H](O)[C@@H](O)C(O)O[C@@H]3CO)[C@@H]2O)O[C@H](CO)[C@@H](O)[C@@H]1O[C@@H]1O[C@H](CO)[C@H](O)[C@H](O)[C@H]1O (stereo partly drawn) [LNT, lacto-N-tetraose] | 0.5 | 0.5 | 0.5 | 0.5 | still provided a reduction of C. acnes |
| 2′-fucosyllactose [2′FL] | 0.5 | 0.5 | 1.5 | 1.5 | still provided a reduction of C. acnes |
| CC(=O)N[C@H]1[C@H](O[C@H]2[C@@H](O)[C@@H](CO)O[C@@H](O[C@H]3[C@H](O)[C@@H](O)C(O)O[C@@H]3CO)[C@@H]2O)O[C@H](CO)[C@@H](O[C@@H]2O[C@H](CO)[C@H](O)[C@H](O)[C@H]2O)[C@@H]1O (mixture of isomers) [LNnT (Ref), lacto-N-neotetraose, reference compound] | −0.4 | −0.4 | −0.5 | −0.5 | promoted C. acnes growth |
| 3-fucosyllactose [3FL (Ref), reference compound] | – | – | −0.4 | −0.4 | promoted C. acnes growth |
